Laboratory results as given in ChEMBL document CHEMBL1201862, “PubChem BioAssay data set” (2004).
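Five compound concentrations were applied to cells in 96-well plates for 48 hours; endpoints were derived by simple linear interpolation of the resulting dose-response curve. Abbreviation: GI50, concentration required for 50% inhibition of growth.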 Active and inactive are the calls of the source. No stated cut-off is given here; in the data, active = GI50 up to about 1.1 µM and inactive = higher.

Columns and labels:
Test in all cases: NCI tumour cell line growth inhibition, 48 h
786-0 = tested on: 786-0
A498 = tested on: A498
A549 = tested on: A549
ACHN = tested on: ACHN
BT-549 = tested on: BT-549
CAKI-1 = tested on: CAKI-1
CCRF-CEM = tested on: CCRF-CEM
COLO 205 = tested on: COLO 205
DU-145 = tested on: DU-145
EKVX = tested on: EKVX
HCC 2998 = tested on: HCC 2998
HCT-116 = tested on: HCT-116
HCT-15 = tested on: HCT-15
HL-60 = tested on: HL-60
HOP-92 = tested on: HOP-92
HT-29 = tested on: HT-29
Hs-578T = tested on: Hs-578T
IGROV-1 = tested on: IGROV-1
K562 = tested on: K562
KM12 = tested on: KM12
LOX IMVI = tested on: LOX IMVI
M14 = tested on: M14
MCF7 = tested on: MCF7
MDA-MB-231 = tested on: MDA-MB-231
MDA-MB-435 = tested on: MDA-MB-435
MDA-N = tested on: MDA-N
MOLT-4 = tested on: MOLT-4
Malme-3M = tested on: Malme-3M
NCI-H226 = tested on: NCI-H226
NCI-H23 = tested on: NCI-H23
NCI-H460 = tested on: NCI-H460
NCI/ADR-RES = tested on: NCI/ADR-RES
OVCAR-4 = tested on: OVCAR-4
OVCAR-5 = tested on: OVCAR-5
OVCAR-8 = tested on: OVCAR-8
RPMI-8226 = tested on: RPMI-8226
RXF 393 = tested on: RXF 393
SF-268 = tested on: SF-268
SF-295 = tested on: SF-295
SF-539 = tested on: SF-539
SK-MEL-28 = tested on: SK-MEL-28
SK-MEL-5 = tested on: SK-MEL-5
SK-OV-3 = tested on: SK-OV-3
SN12C = tested on: SN12C
SNB-19 = tested on: SNB-19
SNB-75 = tested on: SNB-75
SW-620 = tested on: SW-620
T47D = tested on: T47D
TK-10 = tested on: TK-10
U-251 = tested on: U-251
UACC-257 = tested on: UACC-257
UACC-62 = tested on: UACC-62
UO-31 = tested on: UO-31

For NCCCN(CCCCN(CCCN)Cc1ccc2ccccc2c1)Cc1ccc2ccccc2c1, the GI50 (786-0) was 1.62 µM (inactive), the GI50 (A498) was 2.1 µM (inactive) and the GI50 (A549) was 1.68 µM (inactive). The GI50 (ACHN) was 1.9 µM (inactive), the GI50 (BT-549) was 2.23 µM (inactive) and the GI50 (CAKI-1) was 1.65 µM (inactive). For the same compound, the GI50 (CCRF-CEM) was 27 µM (inactive), the GI50 (COLO 205) was 2.55 µM (inactive) and the GI50 (DU-145) was 2.22 µM (inactive). The GI50 (EKVX) was 1.77 µM (inactive), the GI50 (HCC 2998) was 2.86 µM (inactive) and the GI50 (HCT-116) was 2.54 µM (inactive). For the same compound, the GI50 (HCT-15) was 3.58 µM, the GI50 (HL-60) was 3.76 µM (inactive) and the GI50 (HOP-92) was 2.83 µM (inactive). For the same compound, the GI50 (HT-29) was 1.7 µM (inactive), the GI50 (Hs-578T) was 1.63 µM (inactive) and the GI50 (IGROV-1) was 1.82 µM (inactive). For the same compound, the GI50 (K562) was 3.51 µM (inactive), the GI50 (KM12) was 1.86 µM (inactive) and the GI50 (LOX IMVI) was 2.1 µM (inactive). For the same compound, the GI50 (M14) was 1.97 µM (inactive), the GI50 (MCF7) was 2.09 µM (inactive) and the GI50 (MDA-MB-231) was 3.18 µM (inactive). The GI50 (MDA-MB-435) was 2.2 µM (inactive), the GI50 (MDA-N) was 1.88 µM (inactive) and the GI50 (MOLT-4) was 2.01 µM (inactive). The GI50 (Malme-3M) was 1.76 µM (inactive), the GI50 (NCI-H226) was 1.8 µM (inactive) and the GI50 (NCI-H23) was 1.85 µM (inactive). For the same compound, the GI50 (NCI-H460) was 1.55 µM (inactive), the GI50 (NCI/ADR-RES) was 18.7 µM (inactive) and the GI50 (OVCAR-4) was 1.99 µM (inactive). For the same compound, the GI50 (OVCAR-5) was 1.84 µM (inactive), the GI50 (OVCAR-8) was 1.82 µM (inactive) and the GI50 (RPMI-8226) was 2.74 µM (inactive). For the same compound, the GI50 (RXF 393) was 1.95 µM (inactive), the GI50 (SF-268) was 1.29 µM (inactive) and the GI50 (SF-295) was 2.12 µM (inactive). The GI50 (SF-539) was 1.8 µM (inactive), the GI50 (SK-MEL-28) was 1.92 µM (inactive) and the GI50 (SK-MEL-5) was 1.92 µM (inactive). For the same compound, the GI50 (SK-OV-3) was 1.86 µM (inactive), the GI50 (SN12C) was 1.57 µM (inactive) and the GI50 (SNB-19) was 1.53 µM (inactive). For the same compound, the GI50 (SNB-75) was 1.5 µM (inactive), the GI50 (SW-620) was 2.43 µM (inactive) and the GI50 (T47D) was 2.42 µM (inactive). The GI50 (TK-10) was 2.21 µM (inactive), the GI50 (U-251) was 1.8 µM (inactive) and the GI50 (UACC-257) was 2.02 µM (inactive). The GI50 (UACC-62) was 2.08 µM (inactive) and the GI50 (UO-31) was 2.32 µM (inactive).
